ChEMBL document CHEMBL1127747, “The effect of the aromatic rings of taxol on biological activity and solution conformation: synthesis and evaluation of saturated taxol and taxotere analogues” (1994)

Tests used:
B16 = experiment: In vitro cytotoxic activity was evaluated against B16 melanoma cells relative to taxol; ED50/ED50; type: functional
[1] = In vitro cytotoxic activity was evaluated by microtubule assembly assay relative to taxol; ED50/ED50; type: functional

Row | Structure (SMILES) | Ratio (B16) | Ratio [1]
1 | CC(=O)O[C@H]1C(=O)[C@@]2(C)C([C@H](OC(=O)C3CCCCC3)[C@]3(O)C[C@H](OC(=O)[C@H](O)C(NC(=O)C4CCCCC4)C4CCCCC4)C(C)=C1C3(C)C)[C@]1(OC(C)=O)CO[C@@H]1C[C@@H]2O (some centres not stated) | 1.6 | 0.47
2 | CC(=O)O[C@H]1C(=O)[C@@]2(C)C([C@H](OC(=O)c3ccccc3)[C@]3(O)C[C@H](OC(=O)[C@H](O)C(NC(=O)c4ccccc4)C4CCCCC4)C(C)=C1C3(C)C)[C@]1(OC(C)=O)CO[C@@H]1C[C@@H]2O (some centres not stated) | 0.91 | 0.29
3 | CC(=O)O[C@H]1C(=O)[C@@]2(C)C([C@H](OC(=O)c3ccccc3)[C@]3(O)C[C@H](OC(=O)[C@H](O)C(NC(=O)OC(C)(C)C)c4ccccc4)C(C)=C1C3(C)C)[C@]1(OC(C)=O)CO[C@@H]1C[C@@H]2O (some centres not stated) | 0.23 | 0.55
4 | CC(=O)O[C@H]1C(=O)[C@@]2(C)C([C@H](OC(=O)C3CCCCC3)[C@]3(O)C[C@H](OC(=O)[C@H](O)C(NC(=O)OC(C)(C)C)c4ccccc4)C(C)=C1C3(C)C)[C@]1(OC(C)=O)CO[C@@H]1C[C@@H]2O (some centres not stated) | 1.1 | 0.67
5 | CC(=O)O[C@@]12CO[C@@H]1C[C@H](O)[C@@]1(C)C(=O)[C@H](O)C3=C(C)[C@@H](OC(=O)[C@H](O)[C@@H](NC(=O)OC(C)(C)C)c4ccccc4)C[C@@](O)([C@@H](OC(=O)c4ccccc4)[C@H]21)C3(C)C.O.O.O [DOCETAXEL] | 0.41 | 0.45
6 | CC(=O)O[C@H]1C(=O)[C@@]2(C)[C@H]([C@H](OC(=O)c3ccccc3)[C@]3(O)C[C@H](OC(=O)[C@H](O)[C@@H](NC(=O)c4ccccc4)c4ccccc4)C(C)=C1C3(C)C)[C@]1(OC(C)=O)CO[C@@H]1C[C@@H]2O [PACLITAXEL] | 1 | 1
